Data from article PMC10453993 (Emerging Microbes & Infections, 2023).

What was measured:
[1] = biological target: T1, recombinant SARS-CoV-2 3CLpro (Severe acute respiratory syndrome coronavirus 2, UniProt P0DTD1); experiment: biochemical
[2] = tested on: SARS-CoV-2 Omicron XBB.1.5; experiment: microbe, parasite or virus in culture; type: cell-based; conditions: Severe acute respiratory syndrome coronavirus 2, Caco-2, read-out: XBB.1.5 EC50, nucleocapsid
[3] = tested on: SARS-CoV-2 Omicron BA.5; experiment: microbe, parasite or virus in culture; type: cell-based; conditions: Severe acute respiratory syndrome coronavirus 2, Calu-3, read-out: BA.5 EC50 Calu-3, nucleocapsid, Calu-3, nucleocapsid staining
[4] = tested on: SARS-CoV-2 Omicron BQ.1.1; experiment: microbe, parasite or virus in culture; type: cell-based; conditions: Severe acute respiratory syndrome coronavirus 2, Calu-3, read-out: BQ.1.1 EC50 Calu-3, nucleocapsid
[5] = tested on: SARS-CoV-2 B.1.617.2 Delta; experiment: microbe, parasite or virus in culture; type: cell-based; conditions: Severe acute respiratory syndrome coronavirus 2, Calu-3, read-out: Delta EC50
[6] = tested on: HCoV-229E; experiment: microbe, parasite or virus in culture; type: cell-based; conditions: Human coronavirus 229E, Caco-2, read-out: HCoV-229E EC50
[7] = biological target: T1, recombinant SARS-CoV-2 3CLpro; experiment: cell-based

| SMILES | IC50 [1] | EC50 [2] | EC50 [3] | EC50 [4] | EC50 [5] | EC50 [6] | IC50 [7] |
| --- | --- | --- | --- | --- | --- | --- | --- |
| CN(C)c1ccc(N(Cc2cc(Cl)cs2)C(=O)Cc2cncc3c(O)cccc23)cc1 [C5b, N-((4-chlorothiophen-2-yl)methyl)-N-(4-(dimethylamino)phenyl)-2-(8-hydroxyisoquinolin-4-yl)acetamide] | 4.5 ± 1 µM |  |  |  |  |  |  |
| CC(C)(C)[C@H](NC(=O)C(F)(F)F)C(=O)N1C[C@H]2[C@@H]([C@H]1C(=O)N[C@H](C#N)C[C@@H]1CCNC1=O)C2(C)C [C7, Nirmatrelvir, reference compound] |  | 0.3 µM | 0.4 µM | 0.4 µM | 1.3 µM | 2 ± 1.2 µM |  |
| CN(C)c1ccc(N(Cc2cccc(Br)c2)C(=O)Cc2cncc3ccccc23)cc1 [C5e, N-(3-bromobenzyl)-N-(4-(dimethylamino)phenyl)-2-(isoquinolin-4-yl)acetamide] | 1.4 ± 0.8 µM |  |  |  |  |  |  |
| CC(C)(C)c1ccc(N(Cc2cc(Cl)cs2)C(=O)Cc2cncc3ccccc23)cc1 [C3, N-(4-(tert-butyl)phenyl)-N-((4-chlorothiophen-2-yl)methyl)-2-(isoquinolin-4-yl)acetamide] | 5 ± 0.3 µM |  |  |  |  | 9.6 ± 1 µM | 1.2 ± 1 µM |
| CSc1ccc(N(Cc2cc(Cl)cs2)C(=O)Cc2cncc3ccccc23)cc1 [C4, N-((4-chlorothiophen-2-yl)methyl)-2-(isoquinolin-4-yl)-N-(4-(methylthio)phenyl)acetamide] | 2.3 ± 0.2 µM |  |  |  |  | 7.9 ± 3.8 µM | 0.6 ± 0.3 µM |
| CN(C)c1ccc(N(Cc2cc(Cl)cs2)C(=O)Cc2cncc3ccccc23)cc1 [C5, N-((4-chlorothiophen-2-yl)methyl)-N-(4-(dimethylamino)phenyl)-2-(isoquinolin-4-yl)acetamide] | 0.9 ± 0.6 µM | 0.1 µM | 0.1 µM | 0.3 µM | 3.2 µM | 4.2 ± 0.7 µM |  |
| COc1ccc(Cl)cc1CN(C(=O)Cc1cncc2ccccc12)c1ccc(N(C)C)cc1 [C5d, N-(5-chloro-2-methoxybenzyl)-N-(4-(dimethylamino)phenyl)-2-(isoquinolin-4-yl)acetamide] | 2.2 ± 0.7 µM |  |  |  |  |  |  |
| C=CCC(c1cc(Cl)cs1)N(C(=O)Cc1cncc2ccccc12)c1ccc(N(C)C)cc1 (stereo not drawn) [C5c, N-(1-(4-chlorothiophen-2-yl)but-3-en-1-yl)-N-(4-(dimethylamino)phenyl)-2-(isoquinolin-4-yl)acetamide] | 1.4 ± 0.8 µM |  |  |  |  |  |  |
| COc1ccc(N(Cc2cc(Cl)cs2)C(=O)Cc2cncc3ccccc23)cc1 [C2, N-((4-chlorothiophen-2-yl)methyl)-2-(isoquinolin-4-yl)-N-(4-methoxyphenyl)acetamide] | 8.5 ± 1.7 µM |  |  |  |  | 5.6 ± 1.4 µM | 0.6 ± 0.2 µM |
